In general, EC50 refers to the concentration giving half of the maximal effect. By Emax is commonly meant the size of the effect at its maximum, as opposed to the concentration needed.

Molecules are shown by their SMILES.

The text below walks through data of patent publication US20200131180A1, “POSITIVE ALLOSTERIC MODULATORS OF THE MUSCARINIC ACETYLCHOLINE RECEPTOR M1” (Vanderbilt University, priority 2018, published 2020).

The target of this assay is T1, human mAChR M1 (Homo sapiens, UniProt P11229).
T1 sequence (P11229 1-460): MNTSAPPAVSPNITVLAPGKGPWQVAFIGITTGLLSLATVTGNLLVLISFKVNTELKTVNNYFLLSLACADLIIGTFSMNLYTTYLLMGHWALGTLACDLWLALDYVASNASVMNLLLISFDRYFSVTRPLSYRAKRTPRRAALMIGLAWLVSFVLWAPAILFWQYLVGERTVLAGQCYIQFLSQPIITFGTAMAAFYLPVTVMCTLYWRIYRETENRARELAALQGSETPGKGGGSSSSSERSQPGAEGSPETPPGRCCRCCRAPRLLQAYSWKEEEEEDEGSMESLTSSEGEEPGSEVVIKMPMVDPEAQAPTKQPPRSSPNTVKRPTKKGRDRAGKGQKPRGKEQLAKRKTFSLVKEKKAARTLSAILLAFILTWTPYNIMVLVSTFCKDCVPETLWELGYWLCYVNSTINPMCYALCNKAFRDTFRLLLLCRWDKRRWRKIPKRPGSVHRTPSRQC
The assay is described as follows: mAChR M1 cell-based functional assay (calcium mobilization, PAM activity). The following applies: CHO-K1 cells expressing hM1, calcium flux (Fluo-4); for EC50: concentration-dependent increase in the EC20 acetylcholine response; for Emax: potentiation of EC20 acetylcholine response. An outline of the steps:
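CHO-K1 cells stably expressing hM1, Fluo-4 AM-loaded; compounds (11-point 1:3 CRC) added, then acetylcholine at EC20 (144 s) and EC80 (230 s). Calcium flux read by FDSS fluorescence ratio; PAM activity is the concentration-dependent increase in the EC20 ACh response, Emax relative to ACh maximum; four-parameter logistic fit.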

For `Cn1cc(-c2ccc(Cc3cc(C(=O)N[C@H]4CCOC[C@@H]4O)c4nccn4c3)c(F)c2)cn1` [compound 55, 6-[[2-fluoro-4-(1-methylpyrazol-4-yl)phenyl]methyl]-N-[(3R,4S)-3-hydroxytetrahydropyran-4-yl]imidazo[1,2-a]pyridine-8-carboxamide], the EC50 came out at 123 nM and the Emax worked out at 65%.

With `Cc1c(Cc2ccc(-c3cnn(C)c3)cc2F)cc(C(=O)N[C@H]2CCOC[C@@H]2O)c2nccn12` [compound 56, 6-[[2-fluoro-4-(1-methylpyrazol-4-yl)phenyl]methyl]-N-[(3R,4S)-3-hydroxytetrahydropyran-4-yl]-5-methyl-imidazo[1,2-a]pyridine-8-carboxamide], the EC50 worked out at 32.2 nM and the Emax is 72%.

On to `Cc1c(Cc2ccc(-c3cnn(C)c3)cc2F)cc(C(=O)N[C@H]2CCCC[C@@H]2O)c2nccn12` [compound 57, 6-[[2-fluoro-4-(1-methylpyrazol-4-yl)phenyl]methyl]-N-[(1S,2S)-2-hydroxycyclohexyl]-5-methyl-imidazo[1,2-a]pyridine-8-carboxamide], for which the EC50 is 97.8 nM and the Emax is 68%.

On to `Cn1cc(-c2ccc(Cc3cc(C(=O)N[C@H]4CCC[C@@H]4O)c4nccn4c3)c(F)c2)cn1` [compound 58, 6-[[2-fluoro-4-(1-methylpyrazol-4-yl)phenyl]methyl]-N-[(1S,2S)-2-hydroxycyclopentyl]imidazo[1,2-a]pyridine-8-carboxamide], for which the concentration giving a half-maximal response (EC50) was 991 nM and the Emax amounted to 84%.

For `Cn1ccc(-c2ccc(Cc3cc(C(=O)N[C@H]4CCC[C@@H]4O)c4nccn4c3)c(F)c2)n1` [compound 59, 6-[[2-fluoro-4-(1-methylpyrazol-3-yl)phenyl]methyl]-N-[(1S,2S)-2-hydroxycyclopentyl]imidazo[1,2-a]pyridine-8-carboxamide], the EC50 stood at 1200 nM and the Emax was determined as 79%.

Regarding `O=C(N[C@H]1CCCC[C@@H]1O)c1cc(Cc2ccc(-n3cccn3)nc2)cn2ccnc12` [compound 60, N-[(1S,2S)-2-hydroxycyclohexyl]-6-[(6-pyrazol-1-yl-3-pyridyl)methyl]imidazo[1,2-a]pyridine-8-carboxamide], the EC50 turned out to be 1010 nM and the Emax came to 47%.

As for `O=C(N[C@H]1CCCCC[C@@H]1O)c1cc(Cc2ccc(-n3cccn3)nc2)cn2ccnc12` [compound 61, N-[(1S,2S)-2-hydroxycycloheptyl]-6-[(6-pyrazol-1-yl-3-pyridyl)methyl]imidazo[1,2-a]pyridine-8-carboxamide], the EC50 was 2540 nM and the Emax came out at 52%.

Take `Cn1cc(-c2ccc(Cc3cc(C(=O)N[C@H]4CCCC[C@@H]4O)c4nccn4c3)cc2)cn1` [compound 62, N-[(1S,2S)-2-hydroxycyclohexyl]-6-[[4-(1-methylpyrazol-4-yl)phenyl]methyl]imidazo[1,2-a]pyridine-8-carboxamide]: the EC50 turned out to be 699 nM and the Emax turned out to be 89%.

As to `O=C(N[C@H]1CCOC[C@@H]1O)c1cc(Cc2ccc(-n3cccn3)nc2)cn2ccnc12` [compound 63, N-[(3R,4S)-3-hydroxytetrahydropyran-4-yl]-6-[(6-pyrazol-1-yl-3-pyridyl)methyl]imidazo[1,2-a]pyridine-8-carboxamide], the EC50 is 4820 nM and the Emax was 67%.

In the case of `O=C(N[C@H]1CCCC[C@@H]1O)c1cc(Cc2ccc(C(F)(F)F)nc2)cn2ccnc12` [compound 64, N-[(1S,2S)-2-hydroxycyclohexyl]-6-[[6-(trifluoromethyl)-3-pyridyl]methyl]imidazo[1,2-a]pyridine-8-carboxamide], the Emax is 46%.

Take `Cn1cc(-c2ccc(Cc3cc(C(=O)N[C@H]4CCOC[C@@H]4O)c4nccn4c3)cc2)cn1` [compound 65, N-[(3R,4S)-3-hydroxytetrahydropyran-4-yl]-6-[[4-(1-methylpyrazol-4-yl)phenyl]methyl]imidazo[1,2-a]pyridine-8-carboxamide]: the EC50 was determined as 1360 nM and the Emax came out at 90%.

For the molecule `O=C(N[C@H]1CCOC[C@@H]1O)c1cc(Cc2ccc(C(F)(F)F)nc2)cn2ccnc12` [compound 66, N-[(3R,4S)-3-hydroxytetrahydropyran-4-yl]-6-[[6-(trifluoromethyl)-3-pyridyl]methyl]imidazo[1,2-a]pyridine-8-carboxamide], the maximal response (Emax) is 36%.

As for `O=C(NC1CCOCC1)c1cc(Cc2ccc(-n3cccn3)cc2)cc2ncnn12` [compound 67, 7-(4-(1H-pyrazol-1-yl)benzyl)-N-(tetrahydro-2H-pyran-4-yl)-[1,2,4]triazolo[1,5-a]pyridine-5-carboxamide], the Emax was found to be 46%.
